This is an account of results in ChEMBL document CHEMBL1129117 (Bioorg Med Chem Lett, 1996).

A word on the IC50: it is the concentration needed to halve the response being measured. A lower IC50 goes with higher potency.

Assay [1] has as its target T1, Angiotensin-converting enzyme (Rattus norvegicus, UniProt P47820).
T1 sequence (P47820 whole entry): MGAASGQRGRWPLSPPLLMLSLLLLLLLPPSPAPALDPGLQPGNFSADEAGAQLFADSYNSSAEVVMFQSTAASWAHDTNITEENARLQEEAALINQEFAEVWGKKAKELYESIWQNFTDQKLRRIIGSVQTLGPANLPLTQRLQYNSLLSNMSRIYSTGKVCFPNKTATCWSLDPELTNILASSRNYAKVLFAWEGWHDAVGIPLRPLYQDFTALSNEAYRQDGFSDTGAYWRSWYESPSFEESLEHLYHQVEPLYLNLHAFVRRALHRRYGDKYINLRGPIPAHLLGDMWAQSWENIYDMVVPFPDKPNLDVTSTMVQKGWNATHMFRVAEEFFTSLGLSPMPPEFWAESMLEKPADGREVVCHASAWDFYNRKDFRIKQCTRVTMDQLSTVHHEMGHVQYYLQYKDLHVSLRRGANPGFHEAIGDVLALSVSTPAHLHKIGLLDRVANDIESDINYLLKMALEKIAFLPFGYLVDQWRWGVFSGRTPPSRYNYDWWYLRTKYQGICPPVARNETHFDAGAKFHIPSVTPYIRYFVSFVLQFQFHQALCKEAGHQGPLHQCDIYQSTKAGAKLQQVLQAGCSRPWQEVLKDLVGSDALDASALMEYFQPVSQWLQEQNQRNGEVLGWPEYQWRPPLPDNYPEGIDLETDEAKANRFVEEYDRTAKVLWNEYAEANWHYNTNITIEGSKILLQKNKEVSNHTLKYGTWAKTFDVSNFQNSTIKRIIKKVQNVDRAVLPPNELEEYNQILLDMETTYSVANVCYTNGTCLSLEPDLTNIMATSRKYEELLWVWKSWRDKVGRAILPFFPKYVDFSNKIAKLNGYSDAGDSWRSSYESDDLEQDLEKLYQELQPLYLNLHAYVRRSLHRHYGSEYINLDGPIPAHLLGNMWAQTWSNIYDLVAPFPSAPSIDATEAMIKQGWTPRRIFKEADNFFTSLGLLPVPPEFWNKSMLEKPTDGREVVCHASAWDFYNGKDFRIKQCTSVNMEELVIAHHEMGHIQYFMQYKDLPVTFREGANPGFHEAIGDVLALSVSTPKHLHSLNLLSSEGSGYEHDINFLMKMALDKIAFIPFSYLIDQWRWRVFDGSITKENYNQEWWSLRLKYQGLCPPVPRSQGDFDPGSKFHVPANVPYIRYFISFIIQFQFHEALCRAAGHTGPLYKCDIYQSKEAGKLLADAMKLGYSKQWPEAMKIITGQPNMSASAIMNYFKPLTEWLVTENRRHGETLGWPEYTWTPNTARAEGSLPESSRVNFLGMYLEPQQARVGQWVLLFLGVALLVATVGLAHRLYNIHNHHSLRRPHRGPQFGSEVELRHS
The assay is described as follows: Compound was measured for the inhibition of Angiotensin I converting enzyme.

The target of a further assay is T2, Neprilysin (Rattus norvegicus, UniProt P07861).
T2 sequence (P07861 whole entry): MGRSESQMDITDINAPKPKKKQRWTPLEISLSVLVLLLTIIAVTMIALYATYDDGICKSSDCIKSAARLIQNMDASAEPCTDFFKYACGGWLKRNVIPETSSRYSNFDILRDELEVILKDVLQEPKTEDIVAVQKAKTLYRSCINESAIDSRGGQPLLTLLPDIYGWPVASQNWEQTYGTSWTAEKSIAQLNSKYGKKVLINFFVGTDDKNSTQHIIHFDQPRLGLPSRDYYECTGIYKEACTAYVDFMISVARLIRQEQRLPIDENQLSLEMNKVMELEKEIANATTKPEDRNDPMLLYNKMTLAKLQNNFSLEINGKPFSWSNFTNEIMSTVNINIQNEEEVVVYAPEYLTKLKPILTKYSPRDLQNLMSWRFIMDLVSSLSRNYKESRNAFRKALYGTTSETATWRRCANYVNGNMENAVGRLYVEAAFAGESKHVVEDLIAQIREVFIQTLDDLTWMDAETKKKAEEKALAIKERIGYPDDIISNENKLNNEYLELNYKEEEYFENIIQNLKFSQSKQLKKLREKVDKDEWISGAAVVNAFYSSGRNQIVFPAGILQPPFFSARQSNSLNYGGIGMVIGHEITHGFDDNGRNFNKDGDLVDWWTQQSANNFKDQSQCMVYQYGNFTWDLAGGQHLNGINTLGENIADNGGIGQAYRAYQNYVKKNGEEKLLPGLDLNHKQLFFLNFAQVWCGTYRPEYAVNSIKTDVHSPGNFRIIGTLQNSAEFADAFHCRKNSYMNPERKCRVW
The experiment in a line: Compound was measured for the inhibition of neutral endopeptidase 24.11(NEP).

Consider `O=C(N[C@@H](Cc1ccccc1)P(=O)(O)CC1(C(=O)N[C@@H](Cc2c[nH]c3ccccc23)C(=O)O)CCCC1)c1ccc([N+](=O)[O-])cc1`, for which the IC50 was determined as 1.5 nM in assay [1] and 55 nM at Neprilysin.

For `CS(=O)(=O)N[C@@H](CCCCN)C(=O)N[C@@H](Cc1ccccc1)P(=O)(O)CC1(C(=O)N[C@@H](Cc2c[nH]c3ccccc23)C(=O)O)CCCC1`, the IC50 was 2.5 nM in assay [1] and 90 nM against Neprilysin.
